The test system of assay [1] is P. falciparum NF54 (CQ sensitive). The experiment in a line: [3H]-hypoxanthine incorporation assay, NF54 strain. It is filed as cell-based. The settings on record: Plasmodium falciparum, values marked with asterisk: [3H]-hypoxanthine assay, read-out: IC50 growth inhibition NF54*.
Assay [2] has as its system P. falciparum K1 (CQ-resistant). The experiment in a line: [3H]-hypoxanthine incorporation assay, K1 strain. It is filed as cell-based. The settings on record: Plasmodium falciparum, values marked with asterisk: [3H]-hypoxanthine assay, read-out: IC50 growth inhibition K1 (*).

Usually IC50 stands for the point on the concentration scale where inhibition reaches its midpoint.

As to `O=C(Nc1ccc(F)cc1)c1ccccc1OCC(O)CNC12CC3CC(CC(C3)C1)C2` (stereo not shown) [Compound I-3, 2-[3-(Adamantan-1-ylamino)-2-hydroxy-propoxy]-N-(4-fluoro-phenyl)-benzamide], the IC50 worked out at 0.051 µM in assay [1] and 0.011 µM in assay [2].

As to `O=C(NCCc1ccccc1)c1ccccc1OCC(O)CNCC12CC3CC(CC(C3)C1)C2` (stereo not shown) [Compound I-31, 2-{3-[(Adamantan-1-ylmethyl)-amino]-2-hydroxy-propoxy}-N-phenethyl-benzamide], the figures for the IC50 in assay [1] and in assay [2] were 0.101 µM and 0.03 µM, respectively.

As for `C=CCc1ccccc1NC(=O)c1ccccc1OCC(O)CNCC12CC3CC(CC(C3)C1)C2` (stereo not shown) [Compound I-73, 2-{3-[(Adamantan-1-ylmethyl)-amino]-2-hydroxy-propoxy}-N-(2-allyl-phenyl)-benzamide], the IC50 was determined as 0.073 µM in assay [1] and 0.021 µM in assay [2].

As to `O=C(Nc1ccc2ccccc2c1)c1ccccc1OCC(O)CNCC12CC3CC(CC(C3)C1)C2` (stereo not shown) [Compound I-71, 2-{3-[(Adamantan-1-ylmethyl)-amino]-2-hydroxy-propoxy}-N-naphthalen-2-yl-benzamide], the IC50 in assay [1] is 0.0062 µM; in assay [2], 0.0018 µM.

As to `O=C(Nc1ccc(Br)cc1)c1ccccc1OCC(O)CNC12CC3CC(CC(C3)C1)C2` (stereo not shown) [Compound I-75, 2-[3-(Adamantan-1-ylamino)-2-hydroxy-propoxy]-N-(4-bromo-phenyl)-benzamide], the IC50 in assay [1] amounted to 0.028 µM; in assay [2], 0.0071 µM.

On to `C#CCOc1ccc(OCC(O)CNCc2ccc(C3(C(F)(F)F)N=N3)cc2)c(C(=O)Nc2ccc(F)cc2)c1` (stereo not shown) [Compound I-45, N-(4-Fluoro-phenyl)-2-{2-hydroxy-3-[4-(3-trifluoromethyl-3H-diazirin-3-yl)-benzylamino]-propoxy}-5-prop-2-ynyloxy-benzamide], for which the IC50 in assay [1] was found to be 1.86 µM; in assay [2], 0.542 µM.

For the compound `O=C(Nc1ccc(F)cc1)c1cc(Cl)ccc1OCC(O)CNCC12CC3CC(CC(C3)C1)C2` (stereo not shown) [Compound I-66, 2-{3-[(Adamantan-1-ylmethyl)-amino]-2-hydroxy-pro-poxy}-5-chloro-N-(4-fluoro-phenyl)-benzamide], the values for the IC50 in assay [1] and in assay [2] were 0.0024 µM and 0.0006 µM, respectively.

Consider `CCCCNCC(O)COc1ccccc1C(=O)NCCC(C)C` (stereo not shown) [Compound I-56, 2-(3-Butylamino-2-hydroxy-propoxy)-N-(3-methyl-butyl)-benzamide], for which the IC50 in assay [1] amounted to 2.75 µM; in assay [2], 0.827 µM.

As for `O=C(NCc1ccc(C(F)(F)F)cc1)c1ccccc1OCC(O)CNCC12CC3CC(CC(C3)C1)C2` (stereo not shown) [Compound I-30, 2-{3-[(Adamantan-1-ylmethyl)-amino]-2-hydroxy-propoxy}-N-(4-trifluoromethyl-benzyl)-benzamide], the IC50 in assay [1] turned out to be 0.057 µM; in assay [2], 0.018 µM.

In the case of `O=C(Nc1ccc(F)cc1)c1ccccc1OCC(O)CN1CCC(c2ccccc2)CC1` (stereo not shown) [Compound I-46, N-(4-Fluoro-phenyl)-2-[2-hydroxy-3-(4-phenyl-piperidin-1-yl)-propoxy]-benzamide], the IC50 was found to be 0.026 µM in assay [1] and 0.009 µM in assay [2].

`O=C(Nc1cccc(C(F)(F)F)c1)c1cc(Cl)ccc1OCC(O)CN1CCC(Cc2ccccc2)CC1` (stereo not shown) [Compound I-84, 2-[3-(4-Benzyl-piperidin-1-yl)-2-hydroxy-propoxy]-5-chloro-N-(3-trifluoromethyl-phenyl)-benzamide]: the values for the IC50 in assay [1] and in assay [2] were 0.0038 µM and 0.001 µM, respectively.

For the compound `O=C(NCc1cccc2ccccc12)c1cc(Cl)ccc1OCC(O)CNCC12CC3CC(CC(C3)C1)C2` (stereo not shown) [Compound I-34, 2-{3-[(Adamantan-1-ylmethyl)-amino]-2-hydroxy-propoxy}-5-chloro-N-naphthalen-1-ylmethyl-benzamide], the IC50 is 0.02 µM in assay [1] and 0.005 µM in assay [2].

As to `O=C(NCCCc1ccccc1)c1ccccc1OCC(O)CNCC12CC3CC(CC(C3)C1)C2` (stereo not shown) [Compound I-32, 2-{3-[(Adamantan-1-ylmethyl)-amino]-2-hydroxy-propoxy}-N-(3-phenyl-propyl)-benzamide], the IC50 in assay [1] stood at 0.148 µM; in assay [2], 0.052 µM.

Turning to `O=C(Nc1ccccc1F)c1ccccc1OCC(O)CN1CCC(c2ccccc2)CC1` (stereo not shown) [Compound I-77, N-(2-Fluoro-phenyl)-2-[2-hydroxy-3-(4-phenyl-piperidin-1-yl)-propoxy]-benzamide], the half-maximal inhibitory concentration (IC50) in assay [1] turned out to be 0.256 µM; in assay [2], 0.105 µM.

`O=C(Nc1cccc(C(F)(F)F)c1)c1ccccc1OCC(O)CN1CCN(C(c2ccccc2)c2ccccc2)CC1` (stereo not shown) [Compound I-69, 2-[3-(4-Benzhydryl-piperazin-1-yl)-2-hydroxy-propoxy]-N-(3-trifluoromethyl-phenyl)-benzamide]: the half-inhibitory concentration (IC50) in assay [1] amounted to 0.0055 µM; in assay [2], 0.0013 µM.

For `CC(C)CCNCC(O)COc1ccccc1C(=O)NCCC(C)C` (stereo not shown) [Compound I-58, 2-[2-Hydroxy-3-(3-methyl-butylamino)-propoxy]-N-(3-methyl-butyl)-benzamide], the IC50 is 1.69 µM in assay [1] and 0.467 µM in assay [2].

On to `O=C(Nc1cccc(C(F)(F)F)c1)c1ccccc1OCC(O)CNC12CC3CC(CC(O)(C3)C1)C2` (stereo not shown) [Compound I-70, 2-[2-Hydroxy-3-(3-hydroxy-adamantan-1-ylamino)-propoxy]-N-(3-trifluoromethyl-phenyl)-benzamide], for which the values for the IC50 in assay [1] and in assay [2] were 1.5 µM and 0.921 µM, respectively.

`Cc1ccc(NC(=O)c2ccccc2OCC(O)CN2CCC(c3ccccc3)CC2)cc1` (stereo not shown) [Compound I-80, 2-[2-Hydroxy-3-(4-phenyl-piperidin-1-yl)-propoxy]-N-p-tolyl-benzamide]: the IC50 in assay [1] is 0.047 µM; in assay [2] it was 0.011 µM.

`O=C(Nc1cccc(C(F)(F)F)c1)c1ccccc1OCC(O)CN1CCC(c2ccccc2)CC1` (stereo not shown) [Compound I-67, 2-[2-Hydroxy-3-(4-phenyl-piperidin-1-yl)-propoxy]-N-(3-trifluoromethyl-phenyl)-benzamide]: the IC50 amounted to 0.0088 µM in assay [1] and 0.0022 µM in assay [2].

For `O=C(Nc1ccc(F)cc1)c1ccccc1OCC(O)CN1CCN(C23CC4CC(CC(C4)C2)C3)CC1` (stereo not shown) [Compound I-5, 2-[3-(4-Adamantan-1-yl-piperazin-1-yl)-2-hydroxy-propoxy]-N-(4-fluoro-phenyl)-benzamide], the IC50 in assay [1] came to 0.059 µM; in assay [2], 0.012 µM.

For `CN(CC(O)COc1ccccc1C(=O)NCc1ccc(C2(C(F)(F)F)N=N2)cc1)C1C2CC3CC(C2)CC1C3` (stereo not shown) [Compound I-43, 2-[3-(Adamantan-2-yl-methyl-amino)-2-hydroxy-propoxy]-N-[4-(3-trifluoromethyl-3H-diazirin-3-yl)-benzyl]-benzamide], the IC50 was 0.119 µM in assay [1] and 0.028 µM in assay [2].

`CC(NCC(O)COc1ccc(Cl)cc1C(=O)NCc1cccc2ccccc12)C12CC3CC(CC(C3)C1)C2` (stereo not shown) [Compound I-35, 2-[3-(1-Adamantan-1-yl-ethylamino)-2-hydroxy-propoxy]-5-chloro-N-naphthalen-1-ylmethyl-benzamide]: the IC50 in assay [1] amounted to 0.014 µM; in assay [2], 0.004 µM.

Turning to `O=C(Nc1ccc(Br)cc1)c1ccccc1OCC(O)CNCC12CC3CC(CC(C3)C1)C2` (stereo not shown) [Compound I-74, 2-{3-[(Adamantan-1-ylmethyl)-amino]-2-hydroxy-propoxy}-N-(4-bromo-phenyl)-benzamide], the IC50 was found to be 0.0048 µM in assay [1] and 0.0012 µM in assay [2].

Take `CC12CC3CC(C)(C1)CC(NCC(O)COc1ccccc1C(=O)Nc1ccc(F)cc1)(C3)C2` (stereo not shown) [Compound I-4, 2-[3-(3,5-Dimethyl-adamantan-1-ylamino)-2-hydroxy-propoxy]-N-(4-fluoro-phenyl)-benzamide]: the IC50 in assay [1] was found to be 0.038 µM; in assay [2] it was 0.008 µM.

As for `O=C(Nc1ccccc1F)c1ccccc1OCC(O)CN1CCN(C(c2ccccc2)c2ccccc2)CC1` (stereo not shown) [Compound I-79, 2-[3-(4-Benzhydryl-piperazin-1-yl)-2-hydroxy-propoxy]-N-(2-fluoro-phenyl)-benzamide], the IC50 in assay [1] came out at 0.258 µM; in assay [2], 0.083 µM.

Regarding `O=C(NCCc1ccccc1)c1cc(Cl)ccc1OCC(O)CNC1C2CC3CC(C2)CC1C3` (stereo not shown) [Compound I-10, 2-[3-(Adamantan-2-ylamino)-2-hydroxy-propoxy]-5-chloro-N-phenethyl-benzamide], the IC50 stood at 0.096 µM in assay [1] and 0.026 µM in assay [2].

Turning to `CC(C)CCNC(=O)c1ccccc1OCC(O)CNCc1ccc(C(F)(F)F)cc1` (stereo not shown) [Compound I-60, 2-[2-Hydroxy-3-(4-trifluoromethyl-benzylamino)-propoxy]-N-(3-methyl-butyl)-benzamide], the IC50 in assay [1] is 1.36 µM; in assay [2], 0.371 µM.

Consider `O=C(NCCc1ccccc1)c1cc(Cl)ccc1OCC(O)CNCC12CC3CC(CC(C3)C1)C2` (stereo not shown) [Compound I-33, 2-{3-[(Adamantan-1-ylmethyl)-amino]-2-hydroxy-propoxy}-5-chloro-N-phenethyl-benzamide], for which the results for the IC50 in assay [1] and in assay [2] were 0.027 µM and 0.008 µM, respectively.

Regarding `Cc1ccc(NC(=O)c2ccccc2OCC(O)CN2CCN(C(c3ccccc3)c3ccccc3)CC2)cc1` (stereo not shown) [Compound I-82, 2-[3-(4-Benzhydryl-piperazin-1-yl)-2-hydroxy-propoxy]-N-p-tolyl-benzamide], the IC50 in assay [1] stood at 0.024 µM; in assay [2] it was 0.0059 µM.

With `O=C(Nc1cccc(C(F)(F)F)c1)c1cc(Cl)ccc1OCC(O)CN1CCN(C(c2ccccc2)c2ccccc2)CC1` (stereo not shown) [Compound I-85, 2-[3-(4-Benzhydryl-piperazin-1-yl)-2-hydroxy-propoxy]-5-chloro-N-(3-trifluoromethyl-phenyl)-benzamide], the IC50 in assay [1] was 0.0057 µM; in assay [2] it was 0.0012 µM.

`O=C(Nc1ccccc1F)c1ccccc1OCC(O)CN1CCC(Cc2ccccc2)CC1` (stereo not shown) [Compound I-78, 2-[3-(4-Benzyl-piperidin-1-yl)-2-hydroxy-propoxy]-N-(2-fluoro-phenyl)-benzamide]: the IC50 in assay [1] amounted to 0.205 µM; in assay [2] it was 0.074 µM.

Turning to `CCCCN(CCCC)CC(O)COc1ccccc1C(=O)Nc1ccc(F)cc1` (stereo not shown) [Compound I-61, 2-(3-Dibutylamino-2-hydroxy-propoxy)-N-(4-fluoro-phenyl)-benzamide], the IC50 in assay [1] amounted to 0.018 µM; in assay [2], 0.006 µM.

The values above are taken from patent US20150141437A1, “AMIDOPHENOXYPROPANOLAMINES” (MEDIZINISCHE UNIVERSITÄT WIEN, priority 2012, published 2015).
